Values of other authors as cited in US8575191B2, “Methods for treatment of non-small cell lung cancer” (priority 2010, dated 2013).

System: NSCLC

Question: For `C#Cc1cccc(Nc2ncnc3cc(OCCOC)c(OCCOC)cc23)c1` [erlotinib], which “survival HR compared to placebo” value (adenocarcinoma) is on record?
Answer: 0.8

Question: And the response rate (unselected NSCLC patients previously treated with chemotherapy)?
Answer: 9%
